According to patent publication US20070026026A1 (priority 2005, published 2007):

Key:
[1] = Example 2.2 A stability of losartan potassium in SPB with propylene glycol at 50° C. (HPLC); format: physicochemical; conditions: for degradation: after more than 1 month (816 hours) at 50° C.
Experimental: X represents the amount in mL of SPB added to provide 10 mL. […] Each formulation was evaluated by HPLC. The samples were then stored at 50° C. for about 1 month and analyzed periodically.

[2] = Example 2.2 C stability with PG, glycerin and xylitol at 50° C. (HPLC); format: physicochemical; conditions: after about 1 month at 50° C.
Experimental: Even with 30 percent glycerin present, in some embodiments it is desired to add additional sweetener as the composition may not be sweet enough for some patients. Accordingly, a stronger sweetener was considered for use in the composition. […] Thus, the stability of a composition of propylene glycol (PG), glycerin, and xylitol was studied and evaluated. […] PG (1.5 mL) was then added, this mixture was vortexed for 1 minute, 3 mL of glycerin was added, and this mixture was finally vortexed for 1 minute. […] Four different formulations were prepared and analyzed. Each sample was evaluated by HPLC. The samples were then stored at 50° C. for about 1 month and analyzed periodically.

[3] = Example 2.2 B stability with PG and glycerin or PG and PEG 400 at 50° C. (HPLC); format: physicochemical; conditions: for degradation: after 816 hours at 50° C.
Experimental: X represents the amount in mL of SPB added to provide 8.5 mL. […] Five different formulations were prepared and analyzed. Each sample was evaluated by HPLC. The samples were then stored at 50° C. for about 1 month and analyzed periodically.

[4] = Example 2.3 stability of saccharin-containing compositions at 50° C. (HPLC); format: physicochemical; conditions: for stability of losartan (percent active): saccharin sodium, 50° C.
Experimental: Two different concentrations of glycerin (30 percent and 40 percent by volume) and 2 different pHs of the phosphate buffer (7.4 and 8.2) were studied. Four different compositions that contained saccharin were prepared and analyzed. The materials used were losartan potassium; saccharin sodium; propylene glycol (PG); glycerin; and potassium phosphate buffer (PPB) prepared in-house. […] Three mL of PG were then added to the vortexed mixture, (17-X) mL of glycerin added, and this mixture vortexed for 2 minutes. X represents the amount in mL of PPB added to provide 17 mL. Each sample was then stored at 50° C. and evaluated by HPLC periodically.

[5] = Example 1.1 solubility of losartan potassium with and without buffering agent (visual); format: physicochemical; conditions: for solubility: thermodynamic from solid, visual
Experimental: After 24 hours, the samples were examined. […] Formulations at these pHs of about 7 or greater should prevent precipitation of the drug.

[6] = Example 1.2 solubility of losartan potassium in sodium phosphate buffers by HPLC; format: physicochemical; conditions: for solubility at 0 h / solubility at 48 h / solubility at 480 h: sodium phosphate buffer, aqueous buffer, thermodynamic from solid, room temperature, HPLC
Text: The materials used were sodium phosphate buffer (SPB) prepared in-house and losartan potassium. […] A sample of each solution was then taken and analyzed by HPLC. […] Each sample was stored at room temperature and data was collected as a function of time.

[7] = Another study (not described): PG and PEG 400 effect on stability of losartan potassium; format: physicochemical
Text: Therefore, in one embodiment PG is preferred over PEG 400.

[8] = Example 2.1 stability of losartan potassium in phosphate buffers at 50° C. (HPLC); format: physicochemical; conditions: for stability (percent active on a weight basis): 50° C.; for degradation of the original losartan: pH 7.4
Experimental: The three variables were the pH of the buffer, cation of the buffer, and concentration of the phosphate salt in the buffer. The pHs studied were 7.4 and 8.2; the cations studied were potassium and sodium; and the concentrations studied were 10 mM and 100 mM.
The materials used were sodium phosphate buffer (SPB) and potassium phosphate buffer (PPB) prepared in-house and losartan potassium. […] A sample of each solution was taken and analyzed by HPLC. The different solutions were then stored at 50° C. […] The stability (measured as percent active on a weight

[9] = cited from earlier work

For `CCCCc1nc(Cl)c(CO)n1Cc1ccc(-c2ccccc2-c2nnn[nH]2)cc1.[K]` [losartan potassium, 2-butyl-4-chloro-1-[p-(o-1H-tetrazol-5-ylphenyl)benzyl]imidazole-5-methanol monopotassium salt], the degradation ([1]; 10 percent PG in SPB pH 7.2) was “less than 0.4%”, the degradation ([1]; 15 percent PG in SPB pH 7.2) was “less than 0.4%” and the stability in words ([1]; 30 percent PG in SPB pH 7.2, 50° C.) was “unexpectedly good”. For the same compound, the degradation ([2]; 5 mg/mL, 1 percent xylitol) was “about 0.45%”, the degradation ([2]; 5 mg/mL, 2 percent xylitol) was “about 0.5%” and the degradation ([2]; 25 mg/mL, 1 percent xylitol) was “approximately 0.7%”. The degradation ([2]; 25 mg/mL, 2 percent xylitol) was “approximately 0.7%”, the degradation ([3]; SPB with 15 percent PG and 10 percent PEG 400) was 0.33% and the degradation ([3]; SPB with 15 percent PG and up to 30 percent glycerin) was “less than 0.5%”. For the same compound, the “effect on stability in words” value ([3]; increasing PEG 400 to 30 percent in the composition, 50° C.) was “decreased the stability”, the “stability of losartan (percent active)” value ([4]; 30% glycerin, PPB pH = 7.4, PG, 0 hour) was 99.88% and the “stability of losartan (percent active)” value ([4]; 30% glycerin, PPB pH = 7.4, PG, 72 hours) was 99.91%. The “stability of losartan (percent active)” value ([4]; 30% glycerin, PPB pH = 7.4, PG, 288 hours) was 99.88%, the “stability of losartan (percent active)” value ([4]; 30% glycerin, PPB pH = 7.4, PG, 1152 hours) was 99.65% and the “stability of losartan (percent active)” value ([4]; 30% glycerin, PPB pH = 8.2, PG, 0 hour) was 99.88%. For the same compound, the “stability of losartan (percent active)” value ([4]; 30% glycerin, PPB pH = 8.2, PG, 72 hours) was 99.88%, the “stability of losartan (percent active)” value ([4]; 30% glycerin, PPB pH = 8.2, PG, 288 hours) was 99.89% and the “stability of losartan (percent active)” value ([4]; 30% glycerin, PPB pH = 8.2, PG, 1152 hours) was 99.86%. For the same compound, the “stability of losartan (percent active)” value ([4]; 40% glycerin, PPB pH = 7.4, PG, 0 hour) was 99.88%, the “stability of losartan (percent active)” value ([4]; 40% glycerin, PPB pH = 7.4, PG, 72 hours) was 99.88% and the “stability of losartan (percent active)” value ([4]; 40% glycerin, PPB pH = 7.4, PG, 288 hours) was 99.88%. For the same compound, the “stability of losartan (percent active)” value ([4]; 40% glycerin, PPB pH = 7.4, PG, 1152 hours) was 99.73%, the “stability of losartan (percent active)” value ([4]; 40% glycerin, PPB pH = 8.2, PG, 0 hour) was 99.88% and the “stability of losartan (percent active)” value ([4]; 40% glycerin, PPB pH = 8.2, PG, 72 hours) was 99.88%. The “stability of losartan (percent active)” value ([4]; 40% glycerin, PPB pH = 8.2, PG, 288 hours) was 99.92%, the “stability of losartan (percent active)” value ([4]; 40% glycerin, PPB pH = 8.2, PG, 1152 hours) was 99.82% and the degradation in words ([4]; saccharin-containing compositions, after 12 days (288 hours) and even at 1152 hours at 50° C.) was “Minimal degradation”. The “crystals after storage of the solubility sample” value ([5]; SPB pH 6.2, stored at 50° C. overnight, examined after 24 hours) was “crystals were observed”, the solubility ([5]; organic solvent or mixture, Ethanol) was 130000 µg/mL and the solubility ([5]; sodium phosphate buffer, aqueous buffer, SPB 10 mM, pH 1.9) was 48 µg/mL. For the same compound, the solubility ([5]; sodium phosphate buffer, aqueous buffer, SPB 10 mM, pH 6.2) was > 241000 µg/mL, the solubility ([5]; sodium phosphate buffer, aqueous buffer, SPB 10 mM, pH 7.2) was 300000 µg/mL and the solubility ([5]; sodium phosphate buffer, aqueous buffer, SPB 10 mM, pH 8.2) was > 253000 µg/mL. The solubility ([5]; Water, pH 5.5) was > 243000 µg/mL, the solubility ([5]; water with HCl, aqueous buffer, Water + HCl, pH 2.1) was 280 µg/mL and the solubility ([5]; water with NaOH, aqueous buffer, Water + NaOH, pH 11.8) was > 239000 µg/mL. The precipitation on storage ([6]; SPB pH of 6.2) was “some re-precipitation was observed”, the solubility in words ([6]; pH under 6.2) was “practically insoluble” and the precipitation on storage ([6]; pHs of 7.4 and higher) was “no precipitation was observed”. For the same compound, the solubility at 0 h ([6]; SPB pH = 1.7) was 1070 µg/mL, the solubility at 48 h ([6]; SPB pH = 1.7) was 152 µg/mL and the solubility at 480 h ([6]; SPB pH = 1.7) was 30 µg/mL. The solubility at 0 h ([6]; SPB pH = 6.2) was 1620 µg/mL, the solubility at 48 h ([6]; SPB pH = 6.2) was 1650 µg/mL and the solubility at 480 h ([6]; SPB pH = 6.2) was 60 µg/mL. The solubility at 0 h ([6]; SPB pH = 7.4) was > 250000 µg/mL, the solubility at 48 h ([6]; SPB pH = 7.4) was > 250000 µg/mL and the solubility at 480 h ([6]; SPB pH = 7.4) was > 250000 µg/mL. For the same compound, the solubility at 0 h ([6]; SPB pH = 8.2) was > 250000 µg/mL, the solubility at 48 h ([6]; SPB pH = 8.2) was > 250000 µg/mL and the solubility at 480 h ([6]; SPB pH = 8.2) was > 250000 µg/mL. For the same compound, the “effect of PEG 400 on stability” value ([7]; in SPB) was “improve the stability”, the “effect of PG on stability” value ([7]; in SPB) was “improve the stability” and the “effect of PEG 400 on stability” value ([7]; in water) was “did not improve the stability”. For the same compound, the “stability (percent active on a weight basis)” value ([8]; PPB, 10 mM, pH = 7.4, 0 hours) was 99.93%, the “stability (percent active on a weight basis)” value ([8]; PPB, 10 mM, pH = 7.4, 24 hours) was 99.90% and the “stability (percent active on a weight basis)” value ([8]; PPB, 10 mM, pH = 7.4, 264 hours) was 99.14%. For the same compound, the “stability (percent active on a weight basis)” value ([8]; PPB, 10 mM, pH = 7.4, 672 hours) was 98.74%, the “stability (percent active on a weight basis)” value ([8]; PPB, 100 mM, pH = 7.4, 0 hours) was 99.93% and the “stability (percent active on a weight basis)” value ([8]; PPB, 100 mM, pH = 7.4, 24 hours) was 99.90%. The “stability (percent active on a weight basis)” value ([8]; PPB, 100 mM, pH = 7.4, 264 hours) was 99.32%, the “stability (percent active on a weight basis)” value ([8]; PPB, 100 mM, pH = 7.4, 672 hours) was 98.84% and the “degradation of the original losartan” value ([8]; SPB 10 mM, after about 1 month at 50° C.) was “around 1.5%”. For the same compound, the “degradation of the original losartan” value ([8]; SPB 100 mM, after about 1 month at 50° C.) was “about 1%”, the “stability (percent active on a weight basis)” value ([8]; SPB, 10 mM, pH = 7.4, 0 hours) was 99.96% and the “stability (percent active on a weight basis)” value ([8]; SPB, 10 mM, pH = 7.4, 24 hours) was 99.90%. The “stability (percent active on a weight basis)” value ([8]; SPB, 10 mM, pH = 7.4, 264 hours) was 99.12%, the “stability (percent active on a weight basis)” value ([8]; SPB, 10 mM, pH = 7.4, 672 hours) was 98.49% and the “stability (percent active on a weight basis)” value ([8]; SPB, 10 mM, pH = 8.2, 0 hours) was 99.93%. For the same compound, the “stability (percent active on a weight basis)” value ([8]; SPB, 10 mM, pH = 8.2, 24 hours) was 99.91%, the “stability (percent active on a weight basis)” value ([8]; SPB, 10 mM, pH = 8.2, 264 hours) was 99.68% and the “stability (percent active on a weight basis)” value ([8]; SPB, 10 mM, pH = 8.2, 672 hours) was 99.59%. The “stability (percent active on a weight basis)” value ([8]; SPB, 100 mM, pH = 7.4, 0 hours) was 99.93%, the “stability (percent active on a weight basis)” value ([8]; SPB, 100 mM, pH = 7.4, 24 hours) was 99.90% and the “stability (percent active on a weight basis)” value ([8]; SPB, 100 mM, pH = 7.4, 264 hours) was 99.34%. The “stability (percent active on a weight basis)” value ([8]; SPB, 100 mM, pH = 7.4, 672 hours) was 98.90%, the “stability (percent active on a weight basis)” value ([8]; SPB, 100 mM, pH = 8.2, 0 hours) was 99.93% and the “stability (percent active on a weight basis)” value ([8]; SPB, 100 mM, pH = 8.2, 24 hours) was 99.91%. The “stability (percent active on a weight basis)” value ([8]; SPB, 100 mM, pH = 8.2, 264 hours) was 99.77%, the “stability (percent active on a weight basis)” value ([8]; SPB, 100 mM, pH = 8.2, 672 hours) was 99.66% and the degradation ([8]; SPB, pH of 8.2, after about 1 month at 50° C.) was “about 0.4%”. For the same compound, the solubility in alcohols [9] was “soluble”, the solubility in chloroform [9] was “practically insoluble” and the “solubility in common organic solvents, such as acetonitrile and methylethyl ketone” value [9] was “slightly soluble”. For the same compound, the solubility in water [9] was “freely soluble”.
